The experiment addresses T1, BRM (Homo sapiens, UniProt P51531).
T1 construct: In-Cell Western Screen of BRM Degradation in SW1573 Cells; endogenous in cells; host or cells: SW1573
As to the kind of experiment: In-cell Western screen of BRM degradation in SW1573 cells (Dmax and DC50). It counts as cell-based. An outline of the steps:
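Overnight compound treatment (18-20 h, final DMSO 0.1%) of SW1573 cells in DMEM with 10% FBS precedes fixation and in-cell Western staining with 800/680 nm dye-labelled secondaries. Plate images give DC50 and maximal degradation.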

[1] abbreviates: target protein degradation, read-out: BRM DC50.
Setting [2] is: BRM degradation, SW1573 cells, read-out: DC50.
Where [3] appears, read: BRM degradation, SW1573 cells, tested at the top concentration of between 0.3 and 10 μM, read-out: Dmax (%) (% degraded).
Where [4] appears, read: BRM degradation, read-out: BRM DC50.
Setting [5] is: SW1573, % degraded, when tested at the top concentration of between 0.3 and 10 μM, read-out: BRM Dmax (%).

Where two headings read alike, the source gives them in different places.

T1 sequence (P51531 whole entry): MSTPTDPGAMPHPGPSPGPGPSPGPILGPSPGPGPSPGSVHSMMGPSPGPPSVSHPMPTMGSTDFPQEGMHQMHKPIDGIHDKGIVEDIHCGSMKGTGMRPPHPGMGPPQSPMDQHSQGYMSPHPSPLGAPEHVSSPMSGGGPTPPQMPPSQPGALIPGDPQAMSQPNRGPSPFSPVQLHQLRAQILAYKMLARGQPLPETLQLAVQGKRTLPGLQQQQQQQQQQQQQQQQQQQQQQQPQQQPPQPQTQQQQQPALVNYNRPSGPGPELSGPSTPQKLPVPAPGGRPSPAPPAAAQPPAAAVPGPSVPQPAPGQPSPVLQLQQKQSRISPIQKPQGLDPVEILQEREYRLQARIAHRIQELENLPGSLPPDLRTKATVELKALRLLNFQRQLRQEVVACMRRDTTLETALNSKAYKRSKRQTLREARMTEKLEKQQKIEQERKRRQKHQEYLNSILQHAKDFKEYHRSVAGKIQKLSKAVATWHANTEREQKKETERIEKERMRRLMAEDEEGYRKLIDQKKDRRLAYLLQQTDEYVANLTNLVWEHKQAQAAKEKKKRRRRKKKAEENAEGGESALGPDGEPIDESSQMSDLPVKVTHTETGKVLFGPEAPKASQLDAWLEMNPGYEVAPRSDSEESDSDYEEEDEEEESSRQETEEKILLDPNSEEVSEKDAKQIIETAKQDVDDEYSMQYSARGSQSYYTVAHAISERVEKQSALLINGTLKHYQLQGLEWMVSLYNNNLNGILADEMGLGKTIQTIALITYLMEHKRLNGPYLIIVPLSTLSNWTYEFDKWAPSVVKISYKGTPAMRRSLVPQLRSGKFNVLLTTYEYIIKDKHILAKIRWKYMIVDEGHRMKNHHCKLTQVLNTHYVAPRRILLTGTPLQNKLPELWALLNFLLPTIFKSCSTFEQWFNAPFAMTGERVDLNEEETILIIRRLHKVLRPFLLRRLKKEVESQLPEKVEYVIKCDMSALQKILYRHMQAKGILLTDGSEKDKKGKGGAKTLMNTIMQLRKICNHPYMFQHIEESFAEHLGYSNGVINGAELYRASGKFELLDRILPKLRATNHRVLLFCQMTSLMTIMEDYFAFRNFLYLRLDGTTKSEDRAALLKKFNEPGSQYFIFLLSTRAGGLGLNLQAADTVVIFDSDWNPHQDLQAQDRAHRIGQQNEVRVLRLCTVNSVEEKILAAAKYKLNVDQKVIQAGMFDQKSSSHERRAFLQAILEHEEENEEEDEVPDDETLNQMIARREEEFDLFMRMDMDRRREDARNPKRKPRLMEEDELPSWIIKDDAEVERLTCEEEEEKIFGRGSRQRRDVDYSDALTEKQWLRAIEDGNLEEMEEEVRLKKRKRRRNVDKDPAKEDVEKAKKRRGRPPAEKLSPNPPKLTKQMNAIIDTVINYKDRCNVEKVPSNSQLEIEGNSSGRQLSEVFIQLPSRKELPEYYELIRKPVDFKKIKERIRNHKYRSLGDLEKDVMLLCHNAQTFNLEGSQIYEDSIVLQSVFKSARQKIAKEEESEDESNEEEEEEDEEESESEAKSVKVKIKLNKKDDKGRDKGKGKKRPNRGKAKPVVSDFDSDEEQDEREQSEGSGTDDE

In the case of `Cc1nccn1-c1ccc([C@H](C)NC(=O)[C@@H]2C[C@@H](O)CN2C(=O)[C@H](c2cc(N3CCC(OC4CCN(C[C@H]5C[C@H](Oc6cc(N7C8CCC7CN(c7cc(-c9ccccc9O)nnc7N)C8)ccn6)C5)CC4)CC3)no2)C(C)C)cc1` [compound 477, (2S,4R)-1-((2S)-2-(3-(4-((1-(((1r,3r)-3-((4-(3-(3-amino-6-(2-hydroxyphenyl)pyridazin-4-yl)-3,8-diazabicyclo[3.2.1]octan-8-yl)pyridin-2-yl)oxy)cyclobutyl)methyl)piperidin-4-yl)oxy)piperidin-1-yl)isoxazol-5-yl)-3-methylbutanoyl)-4-hydroxy-N-((S)-1-(4-(2-methyl-1H-imidazol-1-yl)phenyl)ethyl)pyrrolidine-2-carboxamide], the half-maximal degradation concentration (DC50) – broadly, the concentration at which degradation of the target reaches its halfway point – under setting [1] was above 30 nM.

Turning to `Cc1ncoc1-c1ccc([C@H](C)NC(=O)[C@@H]2C[C@@H](O)CN2C(=O)[C@@H](c2cc(OCCN3CCC(O[C@H]4C[C@H](Oc5cc(N6C7CCC6CN(c6cc(-c8ccccc8O)nnc6N)C7)ccn5)C4)CC3)no2)C(C)C)cc1` [compound 213, (2S,4R)-1-((2R)-2-(3-(2-(4-((1r,3R)-3-((4-(3-(3-amino-6-(2-hydroxyphenyl)pyridazin-4-yl)-3,8-diazabicyclo[3.2.1]octan-8-yl)pyridin-2-yl)oxy)cyclobutoxy)piperidin-1-yl)ethoxy)isoxazol-5-yl)-3-methylbutanoyl)-4-hydroxy-N-((S)-1-(4-(4-methyloxazol-5-yl)phenyl)ethyl)pyrrolidine-2-carboxamide], the half-maximal degradation concentration (DC50) under setting [2] was below 2.5 nM. The Dmax (in general, the greatest extent of degradation seen) under setting [3] was above 75%.

In the case of `COC[C@H](NC(=O)[C@@H]1C[C@@H](O)CN1C(=O)[C@@H](c1cc(N2CCC(CN3CCC(O[C@H]4C[C@H](Oc5cc(N6C7CCC6CN(c6cc(-c8ccccc8O)nnc6N)C7)ccn5)C4)CC3)CC2)no1)C(C)C)c1ccc(-c2scnc2C)cc1` [compound 668, (2S,4R)-1-((2R)-2-(3-(4-((4-((1r,3r)-3-((4-(3-(3-amino-6-(2-hydroxyphenyl)pyridazin-4-yl)-3,8-diazabicyclo[3.2.1]octan-8-yl)pyridin-2-yl)oxy)cyclobutoxy)piperidin-1-yl)methyl)piperidin-1-yl)isoxazol-5-yl)-3-methylbutanoyl)-4-hydroxy-N-((R)-2-methoxy-1-(4-(4-methylthiazol-5-yl)phenyl)ethyl)pyrrolidine-2-carboxamide], under setting [2], the DC50 is below 2.5 nM. In addition, the maximal degradation (Dmax) (BRM degradation, SW1573 cells, read-out: Dmax (% degraded)) was above 75%.

For the compound `Cc1ncsc1-c1ccc([C@H](C)NC(=O)[C@@H]2C[C@@H](O)CN2C(=O)[C@@H](c2cc(OCCC3CCN(C(=O)[C@H]4C[C@H](CN5CCC([C@H](C)n6cc(-c7cc(-c8ccccc8O)nnc7N)cn6)CC5)C4)CC3)no2)C(C)C)cc1` [compound 454, (2S,4R)-1-((R)-2-(3-(2-(1-((1S,3R)-3-((4-((S)-1-(4-(3-amino-6-(2-hydroxyphenyl)pyridazin-4-yl)-1H-pyrazol-1-yl)ethyl)piperidin-1-yl)methyl)cyclobutane-1-carbonyl)piperidin-4-yl)ethoxy)isoxazol-5-yl)-3-methylbutanoyl)-4-hydroxy-N-((S)-1-(4-(4-methylthiazol-5-yl)phenyl)ethyl)pyrrolidine-2-carboxamide], the DC50 under setting [1] was above 30 nM.

As to `Cc1ncsc1-c1ccc([C@H](C)NC(=O)[C@@H]2C[C@@H](O)CN2C(=O)[C@@H](c2cc(OCCC#Cc3ccc(OC4CC(Oc5cc(N6C7CC[C@@H]6CN(c6cc(-c8ccccc8O)nnc6N)C7)ccn5)C4)cn3)no2)C(C)C)cc1` (stereo partly drawn) [compound 227, (2S,4R)-1-((2R)-2-(3-((4-(5-((1r,3r)-3-((4-(3-(3-amino-6-(2-hydroxyphenyl)pyridazin-4-yl)-3,8-diazabicyclo[3.2.1]octan-8-yl)pyridin-2-yl)oxy)cyclobutoxy)pyridin-2-yl)but-3-yn-1-yl)oxy)isoxazol-5-yl)-3-methylbutanoyl)-4-hydroxy-N-((S)-1-(4-(4-methylthiazol-5-yl)phenyl)ethyl)pyrrolidine-2-carboxamide], under setting [2], the DC50 was below 2.5 nM. In addition, the “Dmax (%) (% degraded)” value (BRM degradation, SW1573 cells, tested at the top concentration of between 0.3 and 10 μM) is reported as “A (A > 75)”.

For the compound `Cc1ncsc1-c1ccc([C@H](C)NC(=O)[C@@H]2C[C@@H](O)CN2C(=O)[C@@H](c2cc(N3CCN(C[C@H]4C[C@H](Oc5cc(N6C7CCC6CN(c6cc(-c8ccccc8O)nnc6N)C7)ccn5)C4)CC3)no2)C(C)C)cc1` [compound 499, (2S,4R)-1-((2R)-2-(3-(4-(((1r,3R)-3-((4-(3-(3-amino-6-(2-hydroxyphenyl)pyridazin-4-yl)-3,8-diazabicyclo[3.2.1]octan-8-yl)pyridin-2-yl)oxy)cyclobutyl)methyl)piperazin-1-yl)isoxazol-5-yl)-3-methylbutanoyl)-4-hydroxy-N-((S)-1-(4-(4-methylthiazol-5-yl)phenyl)ethyl)pyrrolidine-2-carboxamide], the half-maximal degradation concentration (DC50) under setting [4] is below 2.5 nM. The Dmax under setting [5] was above 75%.

As to `Cc1ncsc1-c1ccc([C@H](C)NC(=O)[C@@H]2C[C@@H](O)CN2C(=O)[C@@H](c2cc(OC/C=C/c3ncc(O[C@H]4C[C@H](Oc5cc(N6C7CCC6CN(c6cc(-c8ccccc8O)nnc6N)C7)ccn5)C4)cn3)no2)C(C)C)cc1` [compound 392, (2S,4R)-1-((2R)-2-(3-(((E)-3-(5-((1r,3R)-3-((4-(3-(3-amino-6-(2-hydroxyphenyl)pyridazin-4-yl)-3,8-diazabicyclo[3.2.1]octan-8-yl)pyridin-2-yl)oxy)cyclobutoxy)pyrimidin-2-yl)allyl)oxy)isoxazol-5-yl)-3-methylbutanoyl)-4-hydroxy-N-((S)-1-(4-(4-methylthiazol-5-yl)phenyl)ethyl)pyrrolidine-2-carboxamide], under setting [5], the Dmax was above 75%. The DC50 under setting [1] was below 2.5 nM.

Take `Cc1ncsc1-c1ccc(CNC(=O)[C@@H]2C[C@@H](O)CN2C(=O)[C@@H](NC(=O)CN2CCN(c3ccc(CCOCCCc4cc(N5C6CCC5CN(c5cc(-c7ccccc7O)nnc5N)C6)ccn4)cn3)CC2)C(C)(C)C)cc1` [compound 48, (2S,4R)-1-((2S)-2-(2-(4-(5-(2-(3-(4-(3-(3-amino-6-(2-hydroxyphenyl)pyridazin-4-yl)-3,8-diazabicyclo[3.2.1]octan-8-yl)pyridin-2-yl)propoxy)ethyl)pyridin-2-yl)piperazin-1-yl)acetamido)-3,3-dimethylbutanoyl)-4-hydroxy-N-(4-(4-methylthiazol-5-yl)benzyl)pyrrolidine-2-carboxamide]: under setting [2], the 50% degradation concentration (DC50) is above 30 nM. For the same compound, the greatest degradation seen (Dmax) (BRM degradation, SW1573 cells, when tested at the top concentration of between 0.3 and 10 μM, read-out: Dmax (%) (% degraded)) is above 75%.

As for `Cc1ncsc1-c1ccc([C@H](C)NC(=O)[C@@H]2C[C@@H](O)CN2C(=O)[C@@H](c2cc(OCCC3CCN(CCOc4cc(N5C6CCC5CN(c5cc(-c7ccccc7O)nnc5N)C6)ccn4)CC3)no2)C(C)C)cc1` [compound 511, (2S,4R)-1-((2R)-2-(3-(2-(1-(2-((4-(3-(3-amino-6-(2-hydroxyphenyl)pyridazin-4-yl)-3,8-diazabicyclo[3.2.1]octan-8-yl)pyridin-2-yl)oxy)ethyl)piperidin-4-yl)ethoxy)isoxazol-5-yl)-3-methylbutanoyl)-4-hydroxy-N-((S)-1-(4-(4-methylthiazol-5-yl)phenyl)ethyl)pyrrolidine-2-carboxamide], the 50% degradation concentration (DC50) under setting [4] was above 30 nM.

Regarding `Cc1ncsc1-c1ccc(CNC(=O)[C@@H]2C[C@@H](O)CN2C(=O)[C@H](c2cc(OCCN3CCN(CCOCCn4cc(-c5cc(-c6ccccc6O)nnc5N)cn4)CC3)no2)C(C)C)cc1` [compound 165, (2S,4R)-1-((S)-2-(3-(2-(4-(2-(2-(4-(3-amino-6-(2-hydroxyphenyl)pyridazin-4-yl)-1H-pyrazol-1-yl)ethoxy)ethyl)piperazin-1-yl)ethoxy)isoxazol-5-yl)-3-methylbutanoyl)-4-hydroxy-N-(4-(4-methylthiazol-5-yl)benzyl)pyrrolidine-2-carboxamide], the DC50 under setting [2] was above 30 nM. Besides, under setting [3], the Dmax is below 50%.

For `COCc1ncsc1-c1ccc([C@H](C)NC(=O)[C@@H]2C[C@@H](O)CN2C(=O)[C@H](c2cc(OCCN3CCC(O[C@H]4C[C@H](Oc5cc(N6C7CCC6CN(c6cc(-c8ccccc8O)nnc6N)C7)ccn5)C4)CC3)no2)C(C)C)cc1` [compound 184, (2S,4R)-1-((2S)-2-(3-(2-(4-((1r,3S)-3-((4-(3-(3-amino-6-(2-hydroxyphenyl)pyridazin-4-yl)-3,8-diazabicyclo[3.2.1]octan-8-yl)pyridin-2-yl)oxy)cyclobutoxy)piperidin-1-yl)ethoxy)isoxazol-5-yl)-3-methylbutanoyl)-4-hydroxy-N-((S)-1-(4-(4-(methoxymethyl)thiazol-5-yl)phenyl)ethyl)pyrrolidine-2-carboxamide], the DC50 under setting [2] was above 30 nM.

With `CC(=O)N1CC(NC(=O)[C@@H]2C[C@@H](O)CN2C(=O)[C@H](c2cc(OCCN3CCN(CCOc4cc(N5C6CCC5CN(c5cc(-c7ccccc7O)nnc5N)C6)ccn4)CC3)no2)C(C)C)(c2ccc(-c3scnc3C)cc2)C1` [compound 235, (2S,4R)-N-(1-acetyl-3-(4-(4-methylthiazol-5-yl)phenyl)azetidin-3-yl)-1-((2S)-2-(3-(2-(4-(2-((4-(3-(3-amino-6-(2-hydroxyphenyl)pyridazin-4-yl)-3,8-diazabicyclo[3.2.1]octan-8-yl)pyridin-2-yl)oxy)ethyl)piperazin-1-yl)ethoxy)isoxazol-5-yl)-3-methylbutanoyl)-4-hydroxypyrrolidine-2-carboxamide], the 50% degradation concentration (DC50) under setting [2] was above 30 nM.

Source of the values: patent publication US12539292B2, “BRM targeting compounds and associated methods of use” (Arvinas Operations, Inc., priority 2018, dated 2026).
